Experimental data from patent US9670142B2, “1,3-diaminocyclopentane carboxamide derivatives” (Merck Patent GmbH, priority 2013, dated 2017).
pIC50: −log10 of the molar value.

Molecular target: human fatty acid synthase FASN (Homo sapiens (Human), UniProt P49327)
Assay: Biochemical activity testing of human fatty acid synthase FASN (NADPH fluorescence intensity enzyme assay)
Conditions: human recombinant full-length fatty acid synthase
Outline: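 In-house Sf9-expressed full-length enzyme (3 μL of 40 nM) in 50 mM potassium phosphate pH 7.0 with glutathione, BSA and Tween-20, plus NADPH (2 μL of 200 μM), preincubated ≥15 min with compound (10 concentrations from 30 μM final, 1% DMSO). Acetyl-CoA/malonyl-CoA added; NADPH fluorescence (ex 340/em 460 nm) read before and after 30 min at room temperature, difference used for IC50.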

human fatty acid synthase FASN, sequence (P49327 whole entry): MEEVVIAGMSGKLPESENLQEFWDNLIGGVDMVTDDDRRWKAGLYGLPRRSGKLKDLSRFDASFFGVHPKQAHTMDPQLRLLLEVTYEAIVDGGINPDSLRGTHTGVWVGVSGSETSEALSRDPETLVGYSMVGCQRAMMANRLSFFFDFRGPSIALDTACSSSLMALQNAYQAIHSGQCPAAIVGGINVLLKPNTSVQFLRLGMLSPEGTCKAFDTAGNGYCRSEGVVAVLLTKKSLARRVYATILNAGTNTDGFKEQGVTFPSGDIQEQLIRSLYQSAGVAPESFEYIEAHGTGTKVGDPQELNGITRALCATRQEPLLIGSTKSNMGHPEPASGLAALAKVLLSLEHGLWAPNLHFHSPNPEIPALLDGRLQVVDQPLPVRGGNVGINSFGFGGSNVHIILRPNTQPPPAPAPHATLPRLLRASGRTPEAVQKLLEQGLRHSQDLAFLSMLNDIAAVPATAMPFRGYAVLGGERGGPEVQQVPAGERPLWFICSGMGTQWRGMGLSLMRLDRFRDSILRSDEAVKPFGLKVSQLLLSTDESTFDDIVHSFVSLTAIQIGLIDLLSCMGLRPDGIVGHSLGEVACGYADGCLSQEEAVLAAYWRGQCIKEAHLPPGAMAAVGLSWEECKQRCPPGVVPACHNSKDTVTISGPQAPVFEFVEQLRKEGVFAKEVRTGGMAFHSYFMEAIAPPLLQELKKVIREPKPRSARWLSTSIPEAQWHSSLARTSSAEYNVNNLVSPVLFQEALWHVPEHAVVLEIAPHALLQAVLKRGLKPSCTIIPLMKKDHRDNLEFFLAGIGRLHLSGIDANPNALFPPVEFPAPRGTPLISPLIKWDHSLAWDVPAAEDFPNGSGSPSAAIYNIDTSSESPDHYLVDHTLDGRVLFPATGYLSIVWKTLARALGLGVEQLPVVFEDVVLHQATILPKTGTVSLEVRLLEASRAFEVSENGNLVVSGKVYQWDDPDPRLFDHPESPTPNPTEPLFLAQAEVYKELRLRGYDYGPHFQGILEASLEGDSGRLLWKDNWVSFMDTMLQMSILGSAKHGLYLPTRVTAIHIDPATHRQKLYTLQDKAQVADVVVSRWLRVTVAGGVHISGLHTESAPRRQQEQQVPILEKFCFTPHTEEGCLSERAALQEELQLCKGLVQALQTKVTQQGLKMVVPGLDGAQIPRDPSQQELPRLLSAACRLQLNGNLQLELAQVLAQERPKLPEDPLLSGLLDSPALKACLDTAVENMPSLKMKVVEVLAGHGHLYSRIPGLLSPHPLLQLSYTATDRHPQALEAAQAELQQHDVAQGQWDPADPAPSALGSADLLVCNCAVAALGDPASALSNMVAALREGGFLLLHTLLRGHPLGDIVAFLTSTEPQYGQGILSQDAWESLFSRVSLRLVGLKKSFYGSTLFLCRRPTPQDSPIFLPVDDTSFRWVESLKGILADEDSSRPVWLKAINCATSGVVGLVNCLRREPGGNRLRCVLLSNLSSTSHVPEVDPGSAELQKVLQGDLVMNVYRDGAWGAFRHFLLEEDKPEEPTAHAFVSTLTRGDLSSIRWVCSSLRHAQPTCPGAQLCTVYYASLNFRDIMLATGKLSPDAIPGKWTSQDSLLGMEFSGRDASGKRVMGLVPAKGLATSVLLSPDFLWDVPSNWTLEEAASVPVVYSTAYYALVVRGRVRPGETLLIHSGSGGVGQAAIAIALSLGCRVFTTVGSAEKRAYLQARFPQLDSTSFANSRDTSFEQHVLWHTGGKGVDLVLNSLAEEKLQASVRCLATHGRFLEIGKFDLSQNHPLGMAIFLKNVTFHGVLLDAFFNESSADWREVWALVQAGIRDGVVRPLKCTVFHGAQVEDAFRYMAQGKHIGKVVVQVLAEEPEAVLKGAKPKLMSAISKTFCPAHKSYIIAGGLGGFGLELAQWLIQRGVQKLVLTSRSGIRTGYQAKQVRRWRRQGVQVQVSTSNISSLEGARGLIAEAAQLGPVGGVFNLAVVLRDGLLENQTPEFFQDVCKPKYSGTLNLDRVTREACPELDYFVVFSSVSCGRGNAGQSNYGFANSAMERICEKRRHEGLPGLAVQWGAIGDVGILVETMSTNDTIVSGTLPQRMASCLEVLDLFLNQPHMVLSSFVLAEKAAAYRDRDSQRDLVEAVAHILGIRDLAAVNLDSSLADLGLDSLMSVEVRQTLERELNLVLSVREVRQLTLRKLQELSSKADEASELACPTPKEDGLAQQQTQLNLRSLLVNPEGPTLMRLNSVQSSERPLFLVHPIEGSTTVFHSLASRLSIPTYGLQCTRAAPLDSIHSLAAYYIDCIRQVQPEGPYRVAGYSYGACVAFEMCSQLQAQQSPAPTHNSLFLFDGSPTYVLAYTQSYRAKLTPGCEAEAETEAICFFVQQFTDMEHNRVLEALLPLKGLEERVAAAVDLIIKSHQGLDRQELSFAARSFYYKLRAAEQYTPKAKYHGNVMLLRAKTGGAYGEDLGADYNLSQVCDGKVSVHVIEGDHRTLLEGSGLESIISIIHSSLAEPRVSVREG

Compound | pIC50
CN(C(=O)c1cnc(-c2nc3ccc(Cl)cc3o2)cn1)[C@@H]1CC[C@H](NC(=O)[C@@H]2CCCO2)C1 [Compound A159, 5-(6-chloro-benzoxazol-2-yl)-pyrazine-2-carboxylic acid methyl-{(1R,3S)-3-[((S)-tetrahydro-furan-2-carbonyl)-amino]-cyclopentyl}-amide] | > 6.52
CCC(=O)N[C@H]1CC[C@@H](N(C)C(=O)c2ccc(-c3ccc4[nH]cc(C(N)=O)c4c3)c(F)c2)C1 [Compound A160, 5-{2-fluoro-4-[methyl-((1R,3S)-3-propionylamino-cyclopentyl)-carbamoyl]-phenyl}-1H-indole-3-carboxylic acid amide] | > 6.52
CCC(=O)N[C@@H]1CC[C@@H](N(C)C(=O)c2ccc(-c3nc4ccccc4o3)cc2)C1 [Compound A165, 4-benzoxazol-2-yl-N-methyl-N-((1R,3R)-3-propionylamino-cyclopentyl)-benzamide] | 4.30 to 5.52

The remaining lines, values ahead:

pIC50 | Compound
4.30 to 5.52 | CC(=O)N[C@@H]1CC[C@@H](N(C)C(=O)c2ccc(-c3nc4ccccc4o3)cc2)C1 [Compound A166, N-((1R,3R)-3-acetylamino-cyclopentyl)-4-benzooxazol-2-yl-N-methyl-benzamide]
4.30 to 5.52 | CN(C(=O)c1ccc(-c2nc3ccccc3o2)cc1)[C@@H]1CC[C@@H](NC(=O)Cc2ccccc2)C1 [Compound A167, 4-benzoxazol-2-yl-N-methyl-N-((1R,3R)-3-phenylacetylamino-cyclopentyl)-benzamide]
4.30 to 5.52 | CC[C@@H](C)CC(=O)N[C@@H]1CC[C@@H](N(C)C(=O)c2ccc(-c3nc4ccccc4o3)cc2)C1 [Compound A168, 4-benzoxazol-2-yl-N-methyl-N-[(1R,3R)-3-((R)-3-methyl-pentanoylamino)-cyclopentyl]-benzamide]
5.52 to 6.52 | CCC(=O)N[C@H]1CC[C@@H](N(C)C(=O)c2ccc(-c3cc(F)c4[nH]cc(C(N)=O)c4c3)c(F)c2)C1 [Compound A172, 7-fluoro-5-{2-fluoro-4-[methyl-((1R,3S)-3-propionylamino-cyclopentyl)-carbamoyl]-phenyl}-1H-indole-3-carboxylic acid amide]
> 6.52 | CN(C(=O)c1ccc(-c2nc3cc(Cl)ccc3o2)cc1)[C@@H]1CC[C@H](NC(=O)[C@@H]2CCCO2)C1 [Compound A174]
